Positions count from the first letter of the chain named. Several values for one entry are separate records, joined by “and”; a condition that tells them apart may be missing. Identical values can stand only once.
Key:
[1] = test system: V74A(1) BAK; test: Liposome permeabilization assay: BH3 peptide activation of V74A(1) BAK receptor; format: biochemical, human; conditions: Suppl. Figs. 3e, 4d
Method: (§1) We performed liposome permeabilization assays as previously described[43]-[46]. […] We mixed the lipid film in ANTS/DPX solution by vortexing and sonication (~15 min) followed by extrusion through polycarbonate membrane of 2 μm pore size (Avanti Polar lipids) to generate homogenous large unilamellar vesicles (LUVs). We separated LUVs from free ANTS/DPX by S500 size exclusion chromatography and stored them at 4 °C in the dark. We prepared peptide and protein dilutions in 96-well black flat bottom plates (Costar) kept on ice. […] We quantified liposome permabilization by integrating area under curve (AUC) of normalized traces based on the Simpson's equation, and analyzed that data in Excel and GraphPad Prism. AUC measurements reflect the kinetic and extent of liposome permeabilization and provide quantitative means for comparison between different experimental conditions (e.g., BAK mutants with gross or partial variation in activity). Variability in permeabilization of different liposomes is common and our analyses compare among conditions investigated with the same liposomes. Although the absolute permeabilization values may differ, the trends for the same conditions are always very similar between different liposomes.

[2] = test system: I81A(3) BAK; test: Liposome permeabilization assay: BH3 peptide activation of I81A(3) BAK receptor; format: biochemical, human; conditions: 50 nM mutant BAK; Suppl. Fig. 4f
Method: as §1

[3] = target: T1, D83A(s) BAK (Homo sapiens, UniProt Q16611, D83A); test: Liposome permeabilization assay: BH3 peptide activation of D83A(s) BAK receptor; format: biochemical; conditions: for liposome permeabilization by 50 nM D83A(s) BAK receptor: 50 nM mutant BAK, Suppl. Fig. 4f; for EC50: EC50 of liposome permeabilization by 200 nM D83A(s) BAK, 200 nM D83A(s) BAK, Suppl. Fig. 3e, 4e
T1 construct: C-terminus truncated recombinant human BAK containing C-terminal 6× histidine tag (MEAS-BAK); made in house; host or cells: E. coli T7 Express pLac I/Y
T1 sequence (Q16611 1-186 D83A limits assumed): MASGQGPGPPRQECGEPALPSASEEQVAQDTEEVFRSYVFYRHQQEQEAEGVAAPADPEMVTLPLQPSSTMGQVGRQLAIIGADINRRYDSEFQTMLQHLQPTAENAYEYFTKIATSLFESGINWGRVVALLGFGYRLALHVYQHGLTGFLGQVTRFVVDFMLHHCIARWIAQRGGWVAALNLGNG
Method: as §1

[4] = target: T2, MEAS-BAK-His6 (Homo sapiens, UniProt Q16611); test: Surface plasmon resonance; format: binding; conditions: 20 °C; for Kd: MEAS-BAK-His6 captured on Ni-NTA HisCap chip, three-fold peptide dilution series injected in triplicate, read-out: SPR KD
T2 construct: C-terminus truncated recombinant human BAK containing C-terminal 6× histidine tag (MEAS-BAK); made in house; host or cells: E. coli T7 Express pLac I/Y
T2 sequence (Q16611 1-186 limits assumed): T1 sequence (Q16611 1-186 D83A limits assumed) with A83D
Method: We conducted SPR experiments at 20 °C using a Pioneer FE optical biosensor (ForteBio) amd histidine-tagged MEAS-BAK-His6 immobilized on polycarboxylate hydrogel-coated gold chips preimmobilized with nitrilotriacetic acid (HisCap chips; ForteBio). We primed the chip in chelating buffer (10 mM HEPES pH 7.4, 150 mM NaCl, 50 µM EDTA, 0.005% Tween20) and preconditioned it at 10 µL/min with three 60 s injections of wash buffer (10 mM HEPES pH 8.3, 150 mM NaCl, 350 mM EDTA, 0.05% Tween20) and one 60 s injection of chelating buffer before charging with a 60 s injection of 500 µM NiCl2 in chelating buffer. After priming into binding buffer (20 mM HEPES pH 8.0, 200 mM NaCl, 1 mM TCEP, 0.01% Tween20), we injected BAK to achieve ~500 RU of captured protein. As reference cell, we charged one flow cell on the chip with Ni^2+ without adding protein. […] We included a series of buffer-only (blank) injections throughout the experiment to account for instrumental noise. […] We processed, double-referenced, solvent corrected, and analyzed the data using the software package Qdat (version 4.3.1.2, ForteBio). We determined kinetic rate constants and affinities by fitting the data to a 1:1 interaction model.

Compound	peptide concentration at which ligands activate V74A(1) BAK [1]	liposome permeabilization by 50 nM I81A(3) BAK receptor [2]	liposome permeabilization by 50 nM D83A(s) BAK receptor [3]	EC50 [3]	SPR kd ([4]; 1:1 interaction model)	kon ([4]; 1:1 interaction model, read-out: SPR ka) [M⁻¹ s⁻¹]	Kd ([4]; 1:1 interaction model) [µM]	SPR Rmax ([4]; ~500 RU captured BAK) [RU]
CC[C@H](C)[C@H](NC(=O)[C@H](CO)NC(=O)[C@H](CCCNC(=N)N)NC(=O)[C@H](CC(=O)O)NC(=O)[C@H](CCSC)NC(=O)[C@H](CO)NC(=O)[C@H](CC(=O)O)NC(=O)CNC(=O)[C@@H](NC(=O)[C@H](CCC(N)=O)NC(=O)[C@H](C)NC(=O)[C@H](CC(C)C)NC(=O)[C@H](Cc1c[nH]cn1)NC(=O)[C@H](CCCNC(=N)N)NC(=O)[C@H](C)NC(=O)[C@@H](NC(=O)[C@H](CC(N)=O)NC(=O)[C@H](CCCNC(=N)N)NC(=O)[C@@H](NC(=O)[C@@H](NC(=O)[C@H](CC(=O)O)NC(=O)[C@H](CCC(=O)O)NC(C)=O)[C@@H](C)CC)[C@@H](C)CC)[C@@H](C)CC)C(C)C)C(N)=O [WT BID BH3, reference compound]	above 1 µM	neither peptide ligands could promote liposome permeabilization	neither peptide ligands could promote liposome permeabilization	4 to 7 µM and 5 to 7 µM	2.61±0.01 ×10-1 s-1	4190 ± 20	62.3 ± 0.4	26.2±0.1
CC[C@H](C)[C@H](NC(=O)[C@H](C)NC(=O)[C@H](CC(C)C)NC(=O)[C@H](CCC(N)=O)NC(=O)[C@H](CCCNC(=N)N)NC(=O)CNC(=O)[C@@H](NC(=O)[C@H](CCC(N)=O)NC(=O)CNC(=O)[C@H](CCSC)NC(=O)[C@@H](NC(=O)[C@H](CO)NC(=O)[C@H](CO)NC(C)=O)[C@@H](C)O)C(C)C)C(=O)N[C@H](C(=O)NCC(=O)N[C@@H](CC(=O)O)C(=O)N[C@@H](CC(=O)O)C(=O)N[C@H](C(=O)N[C@@H](CC(N)=O)C(=O)N[C@@H](CCCNC(=N)N)C(=O)N[C@@H](CCCNC(=N)N)C(=O)N[C@@H](Cc1ccc(O)cc1)C(N)=O)[C@@H](C)CC)[C@@H](C)CC [WT BAK BH3]	above 1 µM	neither peptide ligands could promote liposome permeabilization	neither peptide ligands could promote liposome permeabilization	4 to 7 µM and 5 to 7 µM	–	–	67	–

Source: PMC8752837, “Structural basis of BAK activation in mitochondrial apoptosis initiation” (Nature Communications, 2022)
